Laboratory results taken from patent US20130067618A1, “METHODS AND COMPOSITIONS FOR WEED CONTROL” (priority 2011, published 2013).

Tests used:
[1] = test system: Amaranthus palmeri plants (Palmer amaranth A3); test: Tiling test of pooled trigger molecules to ALS large subunit gene, followed by Staple; visual injury; type: in vivo
Method: Approximately four-week old (3-4 inches tall) greenhouse grown Amaranthus palmeri plants (Palmer amaranth A3) were used in these assays. The plants were spray treated in a greenhouse with the ALStile composition, each composition having six trigger oligonucleotides (Table 3) and a formulation comprising 1 percent Silwet L-77 solution, 2 percent ammonium sulfate and 20 mM sodium phosphate and the concentration of each oligonucleotide was approximately 4 nmol. Spray solutions were prepared the same day as spraying and applied using a track sprayer with a FLATfan nozzle 9501E at 165 psi (pounds/square inch) at a rate of 93 g/ha (grams/hectare). The dsDNA ALStile pool oligonucleotide composition was applied and followed 24 hours later by the herbicide treatment, Staple® (2-Chloro-6-{(4,6-dimethoxy-2-pyrimidinyl)thio}benzoic acid sodium salt, pyrithiobac sodium 85 percent, Dupont, Wilmington, Del.) at 108 g/ha (grams per hectare), five replications per treatment and the data is presented as a visual score of percentage injury determined fourteen days after herbicide application.

[2] = test system: ALS inhibitor resistant Palmer amaranth plants (A3, ALS inhibitor herbicide biotype); test: ALS_pro_S1 trigger followed by Staple or Classic herbicide on ALS inhibitor resistant plants; type: in vivo, Amaranthus palmeri; details: dsDNA trigger, FIG. 2
Method: Thus, ssDNA ALS2 oligonucleotide treatment followed by Staple® at 1 h and 24 h caused 50 percent and 60 percent growth reduction, relative to the untreated control, while Staple® alone at 27 (1 h and 24 h) and 108 (24 h) g ai/ha caused 35 percent, 30 percent, and 40 percent growth reduction, respectively. […] ALS_pro 51 dsDNA trigger molecule was applied to ALS inhibitor resistant Palmer amaranth plants (A3, ALS inhibitor herbicide biotype) followed by ALS inhibitor herbicides 1× Staple® at 108 g ai/ha or 2× Classic® (Chlorimuron Ethyl 25DF, Dupont, Willmington, Del., 2× rate is 70 g ai/ha) at +COC (crop oil concentrate) 24 hr after trigger application.

[3] = test system: Amaranthus palmeri plants (glyphosate-resistant Palmer amaranth, "R-22"); test: Topical ssDNA ALS2 promoter oligonucleotide pool followed by Staple herbicide; plant height; type: in vivo; details: testing repeated with individual oligonucleotides
Method: In this example, growing Amaranthus palmeri plants were treated with a topically applied composition for inducing modulation of a target gene in a plant including (a) an agent for conditioning of a plant to transfer of the polynucleotides and (b) polynucleotides including at least one ssDNA polynucleotide strand including at least one segment of 18-21 contiguous nucleotides of the target gene in sense (S) orientation. […]
Approximately four-week old greenhouse grown Amaranthus palmeri plants (glyphosate-resistant Palmer amaranth, “R-22”) were used in this assays. […] The ssDNA ALS2 oligonucleotide composition was applied and followed 24 hours later by the herbicide treatment, Staple® (2-Chloro-6-{(4,6-dimethoxy-2-pyrimidinyl)thio}benzoic acid sodium salt, pyrithiobac sodium 85 percent, Dupont, Wilmington, Del.) at ¼×(27 g ai/ha (grams active ingredient per hectare) rate for the ssDNA ALS2 oligonucleotide treated plants and 1× rate (108 g ai/ha) for the untreated plants, five replications per treatment and the data is presented as percentage height of the untreated control. Plant height is determined at seven days after herbicide treatment.

[4] = trigger pool (about 4 nmol each) or formulation, Staple @ 108 g/ha 24 h later, 14 days after herbicide, A3

Q: For “ALSpro_S1: trigger TCTTCTCCGACTCTCACAA, SEQ ID NO:4202; ssDNA in Table 2, dsDNA in b81, dsRNA in Table 3 (chemistry not fully specified; listed as Amaranthus palmeri)”, which “herbicide enhancing activity relative to the formulation control” value ([1]; A3 biotype, Staple @ 108 g/ha) is on record?
A: herbicide enhancing activity

Q: What about the “visual score of percentage injury, avg” value ([1]; average of five replications, trigger pool or formulation, Staple @ 108 g/ha 24 h later, 14 days after herbicide, A3) of the same substance?
A: 100%

Q: What about the “visual score of percentage injury, Rep1” value [1, 4] of the same substance?
A: 100%

Q: And the “visual score of percentage injury, Rep2” value [1, 4]?
A: 100%

Q: And the “visual score of percentage injury, Rep3” value [1, 4]?
A: 100%

Q: What about the “visual score of percentage injury, Rep4” value [1, 4] of the same substance?
A: 100%

Q: What about the “visual score of percentage injury, Rep5” value [1, 4] of the same substance?
A: 100%

Q: And the “improvement of herbicide activity on ALS inhibitor resistant plants” value ([2]; then 1x Staple at 108 g ai/ha 24 hr after trigger)?
A: substantially improved the activity

Q: What about the “improvement of herbicide activity on ALS inhibitor resistant plants” value ([2]; then 2x Classic (70 g ai/ha) + COC 24 hr after trigger) of the same substance?
A: substantially improved the activity

Q: And the “ALS inhibitor herbicide enhancing activity of the individual trigger molecule” value [3]?
A: effective trigger molecule
